Measured values: ChEMBL document CHEMBL5137013 (Eur J Med Chem, 2022)
Calls of active or inactive are those of the source. No cut-off for these calls is given here.

Key:
MCF7 = test: Cytotoxicity against human MCF7 cells assessed as reduction in cell viability measured after 24 hrs by MTT assay; settings: MCF7, 24 h
A549 = test: Cytotoxicity against human A549 cells assessed as reduction in cell viability measured after 24 hrs by MTT assay; settings: A549, 24 h
HT-29 [1] = test: Cytotoxicity against human HT-29 cells assessed as reduction in cell viability measured after 24 hrs by MTT assay; type: functional, cell-based; settings: HT-29, 24 h
MDA-MB-231 = test: Cytotoxicity against human MDA-MB-231 cells assessed as reduction in cell viability measured after 24 hrs by MTT assay; type: functional, cell-based; settings: MDA-MB-231, 24 h
HeLa = test: Cytotoxicity against human HeLa cells assessed as reduction in cell viability measured after 24 hrs by MTT assay; type: functional, cell-based
[2] = Tmax in Sprague-Dawley rat at 10 mg/kg, iv by HPLC-MS/MS analysis; type: ADME, organism-based; settings: in vivo
[3] = Cytotoxicity against human A549/TxR cells assessed as reduction in cell viability measured after 24 hrs by MTT assay; type: functional, cell-based
[4] = Resistance index, ratio of IC50 for human A549/TxR cells to IC50 for human A549 cells; type: functional
[5] = Resistance index, ratio of IC50 for human MCF7/TxR cells to IC50 for human MCF7 cells; type: functional
[6] = Half-life in Sprague-Dawley rat at 10 mg/kg, iv by HPLC-MS/MS analysis; type: ADME, organism-based; settings: in vivo
[7] = Cmax in Sprague-Dawley rat at 10 mg/kg, iv by HPLC-MS/MS analysis; type: ADME, organism-based; set-up: dose 10 mg/kg, route iv; settings: in vivo
[8] = Cytotoxicity against human MCF7/TxR cells assessed as reduction in cell viability measured after 24 hrs by MTT assay; type: functional, cell-based
[9] = AUC in Sprague-Dawley rat at 10 mg/kg, iv by HPLC-MS/MS analysis; type: ADME, organism-based; set-up: dose 10 mg/kg, route iv; settings: in vivo
[10] = Clearance in Sprague-Dawley rat at 10 mg/kg, iv by HPLC-MS/MS analysis; type: ADME, organism-based; settings: in vivo
HT-29 [11] = test: Antitumor activity against human HT-29 cells xenografted in BALB/c nude mouse assessed as reduction in tumor weight at 20 mg/kg, ip administered as 2 days interval for 3 weeks and measured 3 weeks post-initial dosing relative to control; type: functional; set-up: scale not given: the % may be the effect or the level left
[12] = Inhibition of porcine brain tubulin polymerization measured at 1 min interval for 60 mins by fluorescence assay; set-up: species or system Sus scrofa
HT-29 [13] = test: Antitumor activity against human HT-29 cells xenografted in BALB/c nude mouse assessed as reduction in tumor weight at 10 mg/kg, ip administered as 2 days interval for 3 weeks and measured 3 weeks post-initial dosing relative to control; type: functional; set-up: scale not given: the % may be the effect or the level left
Sus scrofa = organism: Sus scrofa; test: […] of porcine brain tubulin polymerization at 5 uM measured at 1 min interval for 60 mins by fluorescence assay

| SMILES | IC50 (MCF7) [µM] | IC50 (A549) [µM] | IC50 (HT-29 [1]) [µM] | IC50 (MDA-MB-231) [µM] | IC50 (HeLa) [µM] | also measured |
| --- | --- | --- | --- | --- | --- | --- |
| COC(=O)c1cc2c(cc1Nc1ccc(OC)cc1)OCCO2 | > 20 | > 20 | > 20 | > 20 | > 20 |  |
| COc1c(Br)cc(Nc2cc3c(cc2C(=O)NN)OCCO3)cc1Br | 0.44 | 1.14 | 0.23 | 0.47 | 0.24 |  |
| COc1c(F)cc(C(=O)Nc2cc3c(cc2C(=O)NN)OCCO3)cc1F | > 20 | > 20 | > 20 | > 20 | > 20 |  |
| COc1ccc(Nc2cc3c(cc2C(N)=O)OCCO3)cc1OC | 13.1 | 0.91 | 0.85 | > 20 | 5.29 |  |
| COc1cc([C@@H]2c3cc4c(cc3[C@H](O)[C@H]3COC(=O)[C@H]23)OCO4)cc(OC)c1OC [PODOFILOX] | 0.039 | 0.059 | 0.023 | 0.017 | 0.044 | Tmax [2]: 6 min; IC50 [3]: 0.073 µM; Ratio IC50 [4]: 1.2; Ratio IC50 [5]: 1.1; t1/2 [6]: 12.6 min; Cmax [7]: 3530 ng/mL; IC50 [8]: 0.043 µM; AUC [9]: 2950 µg/L.hr; CL [10]: 56.5 mL/min/kg |
| COc1c(F)cc(Nc2cc3c(cc2C(N)=O)OCCO3)cc1F | 12.2 | 2.21 | 0.86 | 1.7 | 6.12 |  |
| COC(=O)c1cc2c(cc1Nc1cc(F)c(OC)c(F)c1)OCO2 | > 20 | > 20 | 8.53 | > 20 | 10.6 |  |
| COc1cc(C(=O)Nc2cc3c(cc2C(=O)O)OCCO3)cc(OC)c1OC | > 20 | > 20 | > 20 | > 20 | > 20 |  |
| COc1ccc(Nc2cc3c(cc2C(=O)NN)OCCO3)cc1 | > 20 | > 20 | > 20 | > 20 | > 20 |  |
| COc1cc(Nc2cc3c(cc2C(=O)O)OCCO3)cc(OC)c1OC | 6.76 | 11.5 | 2.16 | 6.79 | 2.91 |  |
| COc1c(F)cc(Nc2cc3c(cc2C(=O)NN)OCCO3)cc1F | 15.4 | 1.2 | 1.31 | 5.92 | 2.56 |  |
| COC(=O)c1cc(OC)c(OC)cc1Nc1cc(OC)c(OC)c(OC)c1 | > 20 | > 20 | > 20 | > 20 | > 20 |  |
| COc1cc(C(=O)Nc2cc3c(cc2C(=O)NN)OCCO3)cc(OC)c1OC | > 20 | > 20 | > 20 | > 20 | > 20 |  |
| COC(=O)c1cc(OC)c(OC)cc1Nc1cc(Br)c(OC)c(Br)c1 | > 20 | > 20 | > 20 | > 20 | > 20 |  |
| COC(=O)c1cc2c(cc1Nc1cc(F)c(OC)c(F)c1)OCCO2 | > 20 | 1.55 | 4.47 | 4.1 | 5.22 |  |
| COc1ccc(/C=C\c2cc(OC)c(OC)c(OC)c2)cc1O [COMBRETASTATIN A4] | 0.009 | 0.046 | 0.43 | 0.013 | 0.007 | IC50 [3]: 0.096 µM; Activity (HT-29 [11]): 17.4%; Ratio IC50 [4]: 2.1; Ratio IC50 [5]: 1.8; IC50 [12]: 1.21 µM; IC50 [8]: 0.017 µM |
| COC(=O)c1cc2c(cc1NC(=O)c1cc(Br)c(OC)c(Br)c1)OCCO2 | > 20 | > 20 | > 20 | > 20 | > 20 |  |

| SMILES | IC50 (MCF7) [µM] | IC50 (A549) [µM] | IC50 (HT-29 [1]) [µM] | IC50 (MDA-MB-231) [µM] | IC50 (HeLa) [µM] | also measured |
| --- | --- | --- | --- | --- | --- | --- |
| COC(=O)c1cc2c(cc1Nc1cc(Br)c(OC)c(Br)c1)OCCO2 | 3.37 | 10.1 | 1.47 | 6.46 | 2.49 |  |
| COc1cc(Nc2cc3c(cc2C(=O)NN)OCCO3)cc(OC)c1OC | 0.37 | 0.74 | 0.13 | 0.36 | 0.32 |  |
| CC(=O)O[C@H]1C(=O)[C@@]2(C)[C@H]([C@H](OC(=O)c3ccccc3)[C@]3(O)C[C@H](OC(=O)[C@H](O)[C@@H](NC(=O)c4ccccc4)c4ccccc4)C(C)=C1C3(C)C)[C@]1(OC(C)=O)CO[C@@H]1C[C@@H]2O [PACLITAXEL] |  |  | 0.011 | 0.007 | 0.039 | IC50 [3]: 2.92 µM; Activity (HT-29 [13]): 77.1%; IC50 [8]: 8.35 µM; Activity (Sus scrofa): Active |
| COC(=O)c1cc2c(cc1Nc1cc(Br)c(OC)c(Br)c1)OCO2 | 6.46 | 2.64 | 2.02 | 11.7 | 3.4 |  |
| COC(=O)c1cc2c(cc1NC(=O)c1cc(OC)c(OC)c(OC)c1)OCCO2 | > 20 | > 20 | > 20 | > 20 | > 20 |  |
| COc1cc2c(c(OC)c1OC)-c1ccc(OC)c(=O)cc1[C@@H](NC(C)=O)CC2 [COLCHICINE] |  | 0.031 | 0.25 | 0.097 | 0.008 |  |
| COC(=O)c1cc2c(cc1Nc1ccc(OC)c(OC)c1)OCCO2 | 11.3 | 1 | 0.55 | 5.46 | 2.11 |  |
| COc1c(F)cc(Nc2cc3c(cc2C(=O)NN)OCO3)cc1F | > 20 | > 20 | 3.65 | > 20 | 5.88 |  |
| COc1c(Br)cc(Nc2cc3c(cc2C(=O)O)OCO3)cc1Br | 16 | 15.9 | 3.13 | 5.6 | 6.9 |  |
| COc1cc(Nc2cc3c(cc2C(=O)NN)OCO3)cc(OC)c1OC | 1.97 | 1.4 | 0.53 | 1.36 | 1.19 |  |
| NNC(=O)c1cc2c(cc1Nc1ccc3c(c1)OCO3)OCCO2 | > 20 | > 20 | 1.02 | > 20 | 3.54 |  |
| COC(=O)c1cc2c(cc1NC(=O)c1cc(F)c(OC)c(F)c1)OCCO2 | > 20 | > 20 | > 20 | > 20 | > 20 |  |
| COC(=O)c1cc2c(cc1Nc1ccc3c(c1)OCCO3)OCCO2 | 8.6 | 6.36 | 4.64 | 16.6 | 12.8 |  |
| COC(=O)c1cc2c(cc1Nc1ccc3c(c1)OCO3)OCCO2 | 11.2 | > 20 | 4.61 | 3.13 | 5.55 |  |
| COC(=O)c1cc2c(cc1Nc1cc(OC)c(OC)c(OC)c1)OCO2 | 0.98 | 2.67 | 0.38 | 0.74 | 0.39 |  |
| COc1cc(Nc2cc3c(cc2C(=O)O)OCO3)cc(OC)c1OC | 15.1 | 5.42 | 1.41 | 2.3 | 5.18 |  |
